Results as given in article PMC8073230, “Development and Verification of a Precolumn Derivatization LC-MS/MS Method for the Pharmacokinetic Study of Houttuynine of Houttuynia Essential Oil” (Molecules, 2021).

Experiment: Pharmacokinetic study of Hou in rats after single administration of HEO (LC-MS/MS, non-compartmental model)
Type: in vivo, rat
Settings: for AUC(0–t) / AUC(0–∞) / C max / T 1/2 / T max / V z: Hou in rat plasma after single administration of HEO; for AUC(0–t) / AUC(0–∞) / C max / T 1/2 / T max / V z / MRT(0–t): n = 6; for MRT(0–t): Hou in rat plasma after HEO
Procedure: The pharmacokinetics of HEO administrated to rat via gavage and injection were evaluated based on the determination of Hou blood concentration by the established LC-MS/MS approach. Furthermore, the parameters of the pharmacokinetics were calculated by a non-compartmental model using the Drug and Statistics Software (DAS), version 3.2.8.
Twelve male SD rats (200 ± 30 g) were kept in an appropriate environment for three days before the start of the experiment. Before drug administration, the rats were fasted except for free water access for 12 h. All animals were randomly divided into two groups with six animals in each group. Blood samples (0.2 mL) were withdrawn at specific time intervals (0 h, 5 min, 10 min, 15 min, 30 min, 1 h, 2 h, 3 h, 4 h, 6 h, 8 h, 12 h, and 24 h) after administration in heparinized tubes. The samples were immediately centrifuged at 3000 rpm, and kept at −20 °C in a refrigerator.
Plasma samples (100 μL) were mixed with 100 μL of DNPH (2 mg/mL), 50 μL of IS (PTD, 200 µg/mL), and 150 μL acetonitrile (containing 2% HCl) with uniform mixing, followed by vigorous vortexing for 3 min to precipitate the protein. Then, all samples were shaken in a water bath oscillator for 15 min at 45 °C. The solutions were then centrifuged. The centrifugation step was repeated once, and plasma samples of Hou were obtained and subjected to LC-MS/MS analysis.
Pharmacokinetic parameters including AUC (0–t), AUC (0–∞), MRT (0–t), MRT (0–∞), CLz and so on, were calculated using the DAS (version 3.2.8, Chinese Pharmacological Association, Beijing, China). The Cmax was obtained from the concentration–time curve. The area under the plasma concentration–time curve from zero to the time of the last measurable sample AUC (0–t)), area under the plasma concentration–time curve from zero to infinity AUC (0−∞), mean residence time from zero to the time of the last measurable sample (MRT0−t), mean residence time from zero to the time of infinity (MRT0−∞), and CLz were calculated using the DAS.

F (absolute bioavailability) (Hou after HEO, gavage (oral administration)): 7.08%
F (Hou after HEO, injection (reference route)): 100%
AUC(0–t) (gavage): 2451.79 ± 300.01 µg·h/L
AUC(0–∞) (gavage): 2451.837 ± 432.74 µg·h/L
C max (gavage): 222.48 ± 20.38 ng/mL
T 1/2 (gavage): 6.45 ± 0.94 h
T max (gavage): 3.71 ± 1.07 h
V z (gavage): 85.81 ± 5.74 L/kg
AUC(0–t) (injection): 32,693.2 ± 1320 μg/L × h
AUC(0–∞) (injection): 34,630.466 ± 1436 μg/L × h
C max (injection): 2010 ± 350 ng/mL
T 1/2 (injection): 5.987 ± 0.52 h
T max (injection): 0.033 ± 0.012 h
V z (injection): 5.611 ± 0.97 L/kg
maximum plasma concentration (Cmax) (Hou in rats after HEO, oral administration): 222.48 ng/mL
MRT(0–t) (first MRT line (r8), gavage): 8.914 ± 2.73 h
MRT(0–t) (first MRT line (r8), injection): 7.575 ± 1.21 h
MRT(0–t) (second MRT line (r9), gavage): 11.594 ± 1.85 h
MRT(0–t) (second MRT line (r9), injection): 9.153 ± 0.98 h
Substance: 3-oxo-dodecanal [Hou]
